Experiments:
Format in all cases: functional
UACC-62 = assay: Growth inhibition of human UACC62 cells after 48 hrs by SRB staining method; settings: UACC-62, 48 h
ACHN = assay: Growth inhibition of human ACHN cells after 48 hrs by SRB staining method
HL-60 = assay: Growth inhibition of human HL60 cells after 48 hrs by SRB staining method; settings: HL-60, 48 h
SNB-19 = assay: Growth inhibition of human SNB19 cells after 48 hrs by SRB staining method; settings: SNB-19, 48 h
SK-OV-3 = assay: Growth inhibition of human SKOV3 cells after 48 hrs by SRB staining method; settings: SK-OV-3, 48 h
SK-MEL-5 = assay: Growth inhibition of human SK-MEL-5 cells after 48 hrs by SRB staining method; settings: SK-MEL-5, 48 h
MDA-MB-435 = assay: Growth inhibition of human MDA-MB-435 cells after 48 hrs by SRB staining method; settings: MDA-MB-435, 48 h
T47D = assay: Growth inhibition of human T47D cells after 48 hrs by SRB staining method
LOX IMVI = assay: Growth inhibition of human LOX IMVI cells after 48 hrs by SRB staining method
786-0 = assay: Growth inhibition of human 786-0 cells after 48 hrs by SRB staining method; settings: 786-0, 48 h
UO-31 = assay: Growth inhibition of human UO31 cells after 48 hrs by SRB staining method; settings: UO-31, 48 h
SF-295 = assay: Growth inhibition of human SF295 cells after 48 hrs by SRB staining method; settings: SF-295, 48 h
OVCAR-4 = assay: Growth inhibition of human OVCAR4 cells after 48 hrs by SRB staining method; settings: OVCAR-4, 48 h
[1] = Growth inhibition of human HS 578T cells after 48 hrs by SRB staining method
SN12C = assay: Growth inhibition of human SN12C cells after 48 hrs by SRB staining method
M14 = assay: Growth inhibition of human M14 cells after 48 hrs by SRB staining method; settings: M14, 48 h
PC-3 = assay: Growth inhibition of human PC3 cells after 48 hrs by SRB staining method; settings: PC-3, 48 h
MCF7 = assay: Growth inhibition of human MCF7 cells after 48 hrs by SRB staining method; settings: MCF7, 48 h
NCI-H522 = assay: Growth inhibition of human NCI-H522 cells after 48 hrs by SRB staining method; settings: NCI-H522, 48 h
HOP-62 = assay: Growth inhibition of human HOP62 cells after 48 hrs by SRB staining method; settings: HOP-62, 48 h
IGROV-1 = assay: Growth inhibition of human IGROV1 cells after 48 hrs by SRB staining method; settings: IGROV-1, 48 h
NCI-H460 = assay: Growth inhibition of human NCI-H460 cells after 48 hrs by SRB staining method; settings: NCI-H460, 48 h
NCI-H23 = assay: Growth inhibition of human NCI-H23 cells after 48 hrs by SRB staining method; settings: NCI-H23, 48 h
Malme-3M = assay: Growth inhibition of human MALME-3M cells after 48 hrs by SRB staining method
RXF 393 = assay: Growth inhibition of human RXF393 cells after 48 hrs by SRB staining method; settings: RXF 393, 48 h
HCT-15 = assay: Growth inhibition of human HCT15 cells after 48 hrs by SRB staining method; settings: HCT-15, 48 h
A498 = assay: Growth inhibition of human A498 cells after 48 hrs by SRB staining method; settings: A498, 48 h
KM12 = assay: Growth inhibition of human KM12 cells after 48 hrs by SRB staining method; settings: KM12, 48 h
DU-145 = assay: Growth inhibition of human DU145 cells after 48 hrs by SRB staining method; settings: DU-145, 48 h
NCI/ADR-RES = assay: Growth inhibition of human NCI/ADR-RES cells after 48 hrs by SRB staining method
NCI-H226 = assay: Growth inhibition of human NCI-H226 cells after 48 hrs by SRB staining method; settings: NCI-H226, 48 h
SK-MEL-2 = assay: Growth inhibition of human SK-MEL-2 cells after 48 hrs by SRB staining method; settings: SK-MEL-2, 48 h
UACC-257 = assay: Growth inhibition of human UACC257 cells after 48 hrs by SRB staining method; settings: UACC-257, 48 h
[2] = read-out: pLC50 (the source's name) (converted)

COc1cc(Nc2nc3cc(N)cc(N)c3nc2-c2ccccc2)cc(OC)c1
GI50 (UACC-62): 7.41 µM
LC50 (UACC-62): 61.7 µM
TGI (UACC-62; read-out: pTGI (converted)): 23.4 µM
GI50 (ACHN): 5.62 µM
CC50 (ACHN; [2]): > 100 µM
TGI (ACHN; read-out: pTGI (converted)): 83.2 µM
GI50 (HL-60): 10 µM
CC50 (HL-60; [2]): > 100 µM
TGI (HL-60; read-out: pTGI (converted)): > 100 µM
GI50 (SNB-19): 57.5 µM
LC50 (SNB-19): > 100 µM
TGI (SNB-19; read-out: pTGI (converted)): > 100 µM
GI50 (SK-OV-3): 6.61 µM
CC50 (SK-OV-3; [2]): > 100 µM
TGI (SK-OV-3; read-out: pTGI (converted)): 39.8 µM
GI50 (SK-MEL-5): 10.5 µM
LC50 (SK-MEL-5): 87.1 µM
TGI (SK-MEL-5; read-out: pTGI (converted)): 30.2 µM
GI50 (MDA-MB-435): 11.5 µM
CC50 (MDA-MB-435; [2]): 49 µM
TGI (MDA-MB-435; read-out: pTGI (converted)): 24 µM
GI50 (T47D): 4.47 µM
CC50 (T47D; [2]): > 100 µM
TGI (T47D; read-out: pTGI (converted)): 22.9 µM
GI50 (LOX IMVI): 15.1 µM
LC50 (LOX IMVI): > 100 µM
TGI (LOX IMVI; read-out: pTGI (converted)): 50.1 µM
GI50 (786-0): 17.8 µM
CC50 (786-0; [2]): > 100 µM
TGI (786-0; read-out: pTGI (converted)): 51.3 µM
GI50 (UO-31): 8.91 µM
CC50 (UO-31; [2]): > 100 µM
TGI (UO-31; read-out: pTGI (converted)): 44.7 µM
GI50 (SF-295): 12.6 µM
LC50 (SF-295): > 100 µM
TGI (SF-295; read-out: pTGI (converted)): 58.9 µM
GI50 (OVCAR-4): 17.8 µM
LC50 (OVCAR-4): > 100 µM
TGI (OVCAR-4; read-out: pTGI (converted)): > 100 µM
GI50 [1]: 11 µM
CC50 [1, 2]: > 100 µM
TGI ([1]; read-out: pTGI (converted)): 63.1 µM
GI50 (SN12C): 8.71 µM
CC50 (SN12C; [2]): > 100 µM
TGI (SN12C; read-out: pTGI (converted)): > 100 µM
GI50 (M14): 14.1 µM
LC50 (M14): 85.1 µM
TGI (M14; read-out: pTGI (converted)): 34.7 µM
GI50 (PC-3): 1.95 µM
CC50 (PC-3; [2]): 57.5 µM
TGI (PC-3; read-out: pTGI (converted)): 11 µM
GI50 (MCF7): 7.94 µM
CC50 (MCF7; [2]): 85.1 µM
TGI (MCF7; read-out: pTGI (converted)): 26.9 µM
GI50 (NCI-H522): 9.55 µM
LC50 (NCI-H522): 85.1 µM
TGI (NCI-H522; read-out: pTGI (converted)): 28.8 µM
GI50 (HOP-62): 19.5 µM
LC50 (HOP-62): > 100 µM
TGI (HOP-62; read-out: pTGI (converted)): 53.7 µM
GI50 (IGROV-1): 2.69 µM
LC50 (IGROV-1): > 100 µM
TGI (IGROV-1; read-out: pTGI (converted)): 17 µM
GI50 (NCI-H460): 7.94 µM
LC50 (concentration killing 50% of cells) (NCI-H460): > 100 µM
TGI (NCI-H460; read-out: pTGI (converted)): 52.5 µM
GI50 (NCI-H23): 27.5 µM
LC50 (NCI-H23): > 100 µM
TGI (NCI-H23; read-out: pTGI (converted)): > 100 µM
GI50 (Malme-3M): 4.37 µM
LC50 (Malme-3M): > 100 µM
TGI (Malme-3M; read-out: pTGI (converted)): 24.5 µM
GI50 (RXF 393): 3.16 µM
CC50 (RXF 393; [2]): 95.5 µM
TGI (RXF 393; read-out: pTGI (converted)): 18.6 µM
GI50 (HCT-15): 20 µM
LC50 (HCT-15): > 100 µM
TGI (HCT-15; read-out: pTGI (converted)): > 100 µM
GI50 (A498): 4.9 µM
CC50 (A498; [2]): 79.4 µM
TGI (A498; read-out: pTGI (converted)): 22.4 µM
GI50 (KM12): 13.2 µM
LC50 (KM12): 72.4 µM
TGI (KM12; read-out: pTGI (converted)): 30.9 µM
GI50 (DU-145): 22.9 µM
CC50 (DU-145; [2]): > 100 µM
TGI (DU-145; read-out: pTGI (converted)): > 100 µM
GI50 (NCI/ADR-RES): 12.9 µM
CC50 (NCI/ADR-RES; [2]): > 100 µM
TGI (NCI/ADR-RES; read-out: pTGI (converted)): 74.1 µM
GI50 (NCI-H226): 2.88 µM
LC50 (NCI-H226): > 100 µM
TGI (NCI-H226; read-out: pTGI (converted)): 33.1 µM
GI50 (SK-MEL-2): 12 µM
LC50 (SK-MEL-2): > 100 µM
TGI (SK-MEL-2; read-out: pTGI (converted)): 63.1 µM
GI50 (UACC-257): 15.8 µM
LC50 (UACC-257): > 100 µM
TGI (UACC-257; read-out: pTGI (converted)): 47.9 µM
